Results published in the NIST ThermoML archive (doi:10.1016/j.jct.2010.03.011).
± gives the expanded uncertainty stated by the source.

Columns and labels:
[1] = refractive index (Na D-line) (dimensionless); xn = mol fraction of the nth substance listed; details: 298.2 K, 101 kPa, Liquid, Standard Abbe refractometry
[2] = relative permittivity at various frequencies (dimensionless); xn = mol fraction of the nth substance listed; details: 298.2 K, 101.33 kPa, Liquid, Frequency=0.1 MHz, Parallel plate capacitor
[3] = xn = mol fraction of the nth substance listed; details: 298.2 K, 101 kPa, Liquid, Vibrating tube method
[4] = refractive index (Na D-line) (dimensionless); details: 298.2 K; 101.33 kPa; Liquid; Standard Abbe refractometry
[5] = 298.2 K; 101 kPa; Liquid; Vibrating tube method
[6] = relative permittivity at various frequencies (dimensionless); details: 298.2 K; 101.33 kPa; Liquid; Frequency=0.1 MHz

CC(O)C(C)O (stereo unspecified) [2,3-butanediol] + CCCCC(CC)CO
x1 = 1
Details	mass density [kg/m3]	refractive index	relative permittivity
[1]	–	1.4348 ± 0.0005	–
[2]	–	–	21.282 ± 0.01
[3]	994.31 ± 0.86	–	–

CC(O)CCO (stereo unspecified) [1,3-butanediol]
Details	mass density [kg/m3]	refractive index	relative permittivity
[4]	–	1.4383 ± 0.0005	–
[5]	1001.22 ± 0.87	–	–
[6]	–	–	28.692 ± 0.01

OCCCCO [1,4-butanediol] + C1COCCO1
Details	refractive index, [1]	relative permittivity, [2]
x1 = 0.029	1.4207 ± 0.0005	2.525 ± 0.026
x1 = 0.098	1.422 ± 0.001	3.353 ± 0.03
x1 = 0.2	1.4243 ± 0.0005	4.916 ± 0.035
x1 = 0.293	1.4263 ± 0.0005	6.656 ± 0.04
x1 = 0.4	1.4288 ± 0.0005	8.798 ± 0.047
x1 = 0.491	1.4311 ± 0.0005	11.193 ± 0.058
x1 = 0.6	1.434 ± 0.001	14.491 ± 0.067
x1 = 0.693	1.4363 ± 0.0005	17.889 ± 0.075
x1 = 0.8	1.4392 ± 0.0005	21.914 ± 0.084
x1 = 0.9	1.4418 ± 0.0005	26.541 ± 0.093

OCCCCO [1,4-butanediol] + CCCCC(CC)CO
x1 = 1
Details	mass density [kg/m3]	refractive index	relative permittivity
[1]	–	1.4447 ± 0.0005	–
[2]	–	–	31.539 ± 0.01
[3]	1013.45 ± 0.9	–	–

CCCCC(CC)CO (stereo unspecified) [2-ethyl-1-hexanol] + CC(O)C(C)O
Details	mass density, [3] [kg/m3]	refractive index, [1]	relative permittivity, [2]
x2 = 0	830.62 ± 0.68	1.4293 ± 0.0005	7.611 ± 0.01
x2 = 0.1	837.79 ± 0.72	1.4294 ± 0.0005	8.197 ± 0.018
x2 = 0.25	854.38 ± 0.75	1.4297 ± 0.0005	9.478 ± 0.022
x2 = 0.401	874.23 ± 0.78	1.4301 ± 0.0005	11.075 ± 0.025
x2 = 0.499	890.64 ± 0.81	1.4308 ± 0.0005	12.36 ± 0.03
x2 = 0.55	897.94 ± 0.83	1.4311 ± 0.0005	13.125 ± 0.032
x2 = 0.65	916.49 ± 0.86	1.4318 ± 0.0005	14.659 ± 0.034
x2 = 0.75	934.5 ± 0.89	1.4324 ± 0.0005	16.407 ± 0.038
x2 = 0.898	966.52 ± 0.96	1.4337 ± 0.0005	19.166 ± 0.04

OCCCCO [1,4-butanediol]
Details	mass density [kg/m3]	refractive index	relative permittivity
[4]	–	1.4447 ± 0.0005	–
[5]	1013.45 ± 0.9	–	–
[6]	–	–	31.539 ± 0.01

CC(O)CCO (stereo unspecified) [1,3-butanediol] + CCCCC(CC)CO
Details	mass density, [3] [kg/m3]	refractive index, [1]	relative permittivity, [2]
x1 = 0.1	839.88 ± 0.72	1.4295 ± 0.0005	8.625 ± 0.028
x1 = 0.25	855.62 ± 0.75	1.4301 ± 0.0005	10.605 ± 0.031
x1 = 0.401	875.88 ± 0.78	1.431 ± 0.001	13.065 ± 0.037
x1 = 0.501	891.81 ± 0.82	1.4318 ± 0.0005	15.056 ± 0.043
x1 = 0.6	909.96 ± 0.85	1.4329 ± 0.0005	17.255 ± 0.048
x1 = 0.649	919.85 ± 0.87	1.4334 ± 0.0005	18.524 ± 0.051
x1 = 0.75	939.91 ± 0.91	1.4346 ± 0.0005	21.039 ± 0.055
x1 = 0.9	974.72 ± 0.97	1.4367 ± 0.0005	25.228 ± 0.062
x1 = 1	1001.22 ± 0.87	1.4383 ± 0.0005	28.692 ± 0.01

CC(O)C(C)O (stereo unspecified) [2,3-butanediol] + C1COCCO1
Details	refractive index, [1]	relative permittivity, [2]
x1 = 0.03	1.4205 ± 0.0005	2.386 ± 0.016
x1 = 0.096	1.4212 ± 0.0005	2.798 ± 0.018
x1 = 0.19	1.4223 ± 0.0005	3.592 ± 0.023
x1 = 0.29	1.4235 ± 0.0005	4.778 ± 0.027
x1 = 0.38	1.4249 ± 0.0005	5.985 ± 0.033
x1 = 0.488	1.4264 ± 0.0005	7.881 ± 0.04
x1 = 0.6	1.4281 ± 0.0005	10.205 ± 0.045
x1 = 0.69	1.4294 ± 0.0005	12.277 ± 0.054
x1 = 0.82	1.4316 ± 0.0005	16.001 ± 0.059
x1 = 0.9	1.433 ± 0.001	18.397 ± 0.061

CC(O)CCO (stereo unspecified) [1,3-butanediol] + C1COCCO1
Details	refractive index, [1]	relative permittivity, [2]
x1 = 0.029	1.4206 ± 0.0005	2.488 ± 0.024
x1 = 0.098	1.4217 ± 0.0005	3.231 ± 0.027
x1 = 0.2	1.4233 ± 0.0005	4.644 ± 0.033
x1 = 0.293	1.4251 ± 0.0005	6.316 ± 0.039
x1 = 0.4	1.4265 ± 0.0005	8.425 ± 0.043
x1 = 0.491	1.4282 ± 0.0005	10.465 ± 0.052
x1 = 0.6	1.4301 ± 0.0005	13.528 ± 0.063
x1 = 0.693	1.4319 ± 0.0005	16.725 ± 0.071
x1 = 0.8	1.4343 ± 0.0005	20.583 ± 0.074
x1 = 0.9	1.4362 ± 0.0005	24.335 ± 0.076

CCCCC(CC)CO (stereo unspecified) [2-ethyl-1-hexanol] + OCCCCO
Details	mass density, [3] [kg/m3]	refractive index, [1]	relative permittivity, [2]
x2 = 0.099	840.72 ± 0.73	1.4299 ± 0.0005	8.795 ± 0.031
x2 = 0.25	858.3 ± 0.76	1.4313 ± 0.0005	11.008 ± 0.034
x2 = 0.4	881.5 ± 0.8	1.4329 ± 0.0005	13.706 ± 0.04
x2 = 0.5	897.59 ± 0.83	1.4343 ± 0.0005	15.945 ± 0.048
x2 = 0.6	916.55 ± 0.86	1.4358 ± 0.0005	18.45 ± 0.05
x2 = 0.649	926.55 ± 0.89	1.4368 ± 0.0005	19.741 ± 0.059
x2 = 0.749	948.41 ± 0.93	1.439 ± 0.0005	22.751 ± 0.063
x2 = 0.9	984.92 ± 1	1.4424 ± 0.0005	27.546 ± 0.07

CCCCC(CC)CO (stereo unspecified) [2-ethyl-1-hexanol]
Details	mass density [kg/m3]	refractive index	relative permittivity
[4]	–	1.4293 ± 0.0005	–
[5]	830.62 ± 0.68	–	–
[6]	–	–	7.611 ± 0.01

CC(O)C(C)O (stereo unspecified) [2,3-butanediol]
Details	mass density [kg/m3]	refractive index	relative permittivity
[4]	–	1.4348 ± 0.0005	–
[5]	994.31 ± 0.86	–	–
[6]	–	–	21.282 ± 0.01
